Data published in patent US9765378B2, “Preparation method of new recombinant antibacterial polypeptide medicine” (priority 2011, dated 2017).

System: Staphylococcus (Staphylococcus aureus, Staphylococcus epidermidis, Staphylococcus saprophyticus, and Staphylococcus sciuri)
Experiment: in vitro inhibition and bactericidal effect on bovine mastitis isolated pathogenic bacteria: Staphylococcus
Assay type: cell-based
Details: control antibiotics
Procedure: (5) the recombinant antibacterial polypeptide medicine was tested for the in vitro inhibition and bactericidal effect on bovine mastitis isolated pathogenic bacteria.

| Compound | inhibition and bactericidal effect of controls (MIC50/MBC50 not specified) |
| --- | --- |
| CC(=O)OCC1=C(C(=O)O)N2C(=O)[C@@H](NC(=O)Cc3cccs3)[C@H]2SC1 [cephalothin] | 2 µg/mL |
| Cc1onc(-c2ccccc2)c1C(=O)N[C@@H]1C(=O)N2[C@@H]1SC(C)(C)[C@@H]2C(=O)O [oxacillin] | 4 µg/mL |
